According to publication PMC9256669, “Monomethyl auristatin antibody and peptide drug conjugates for trimodal cancer chemo-radio-immunotherapy” (Nature Communications, 2022):
Non-standard residues stand in square brackets, D forms with d. Residues, ends and D or L forms follow the SMILES beside them. *: point of attachment. Dolaproine = CO[C@@H]([C@@H]1CCCN1)[C@@H](C)C(=O)O; Dil = CC[C@H](C)[C@H](NC)[C@@H](CC(=O)O)OC; X1 = C[C@@H](N*)[C@@H](O)c1ccccc1; NMeV = CN[C@H](C(=O)O)C(C)C

Assays:
[1] = test system: CAL27 WT and CAL27 PIK3CA H1047R cells; assay: Cell culture MMAE sensitivity of isogenic cell lines; assay type: cell-based, human; conditions: CAL27 WT vs CAL27 PIK3CA H1047R
Description: Specific Comment 3: “Line 266: fig 3e: the **** significance; is this IR+MMAE vs IR, or vs MMAE? Please […]
Response: Reviewer #2 raised a similar comment, (Rev #2, Comment 5). As mentioned, the statistical analysis in our original submission compared all 4 experimental groups. Based on Reviewers #2 & #4 […]
Importantly for scientific rigor & reproducibility , we would highlight that MMAE ± IR tumor response studies in syngeneic mice were replicated […]
Specific Comment 4: “Experiments with RAG mice showing that CD8+ T-cells are involved in the response to MMAE+IR are intriguing. A mechanistic explanation is however lacking. If T-cells are crucial for tumor control under IR, why is there such good response in CAL27 xenografts in nude mice with monotherapy only?” […]
adaptive immunity on durable tumor control of syngeneic tumors treated with MMAE + IR. Using depleting […]
mediated durable tumor control of MMAE radiosensitization . […]
Response: In cell culture testing, MOC1 and MOC2 cells were sensitive to MMAE and CDX3379-MMAE as measured by Alamar Blue assay. For Alamar Blue assay cytotoxicity, we measured cell viability at 72 hr of […]

[2] = test system: B16 tumors; assay: NanoString nCounter PanCancer Mouse Immune Profiling of tumors; assay type: in vivo, C57BL/6 mice; conditions: ACPP-MMAE alone vs vehicle
Procedure: RNA was isolated from cells or tumor tissues and comprehensive immune profiling was analyzed using the NanoString PanCancer IO 360 Panel and NanoString nCounter PanCancer Mouse Immune Profiling gene expression platforms. Gene set analysis with calculated global significance scores and directed significance scores were calculated for treated cells. The Advanced Analysis module of the nSolver software was used to analyze genes associated with listed immune cells in tumors and given a Z-score (n = 3 mice per group). Expression levels of GZMB were analyzed using real-time quantitative PCR. Reverse transcription was performed with the iScript cDNA synthesis kit (Biorad), using aliquots of total RNA extracted with RNeasy Plus Mini Kit (Qiagen). Gene-specific primers were GZMB-F […] and GZMB-R […]. Real-time PCR reactions were performed using the CFX Connect Real-Time PCR System (Biorad) and the amplifications were done using the iTaq Universal SYBR Green Supermix (Biorad). qPCR data were analyzed using the Bio-Rad CFX Maestro software.
Supplementary Data 1: Complete NanoString expression data of Figure 1b. Untreated control (n=2) and 5 nM MMAE treated (n=3) B16 cells were harvested at 72 hrs. RNA was collected and analyzed using NanoString PanCancer IO 360 Panel. […]
were harvested. RNA was collected and analyzed using NanoString nCounter PanCancer Mouse Immune Profiling panel. […]

Row | Compound | MMAE sensitivity of isogenic cell lines [1] | tumor infiltration of immune cell types (NanoString) [2]
1 | CC[C@H](C)[C@@H]([C@@H](CC(=O)N1CCC[C@H]1[C@H](OC)[C@@H](C)C(=O)N[C@H](C)[C@@H](O)c1ccccc1)OC)N(C)C(=O)[C@@H](NC(=O)[C@@H](NC)C(C)C)C(C)C [MMAE, monomethyl auristatin E] (H-[NMeV]V[Dil][Dolaproine]-X1) | did not see an appreciable difference in MMAE sensitivity between the isogenic cell lines | 
2 | cyclo(RGD)fc-MC-HN-peg8-e9-oPLGC(Me)AG-r9-c-(MC-VC-PABC-MMAE)-CONH2 [ACPP-MMAE] |  | minimal effects
